Columns and labels:
Assay in all cases: relative viability (nuclei count vs DMSO), 5 days (fraction); higher = more cells survive
BI-2536 + Pictilisib = compound: CC[C@@H]1C(=O)N(C)c2cnc(Nc3ccc(C(=O)NC4CCN(C)CC4)cc3OC)nc2N1C1CCCC1 [BI-2536] + CS(=O)(=O)N1CCN(Cc2cc3nc(-c4cccc5[nH]ncc45)nc(N4CCOCC4)c3s2)CC1 [Pictilisib] (partner 1 µM)
Procedure, shortened: (§1)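 The day after seeding in 1536-well plates, lung cancer cell lines were treated by pin tool with a single drug, or with a fixed anchor-drug dose together with five library-drug doses (not always all listed) in √10 steps. After 5 days, a combined fix-and-stain solution (final 0.05% Triton X-100, 1% formaldehyde, 1 ug/ml Hoechst) was added. Nuclei counted on 4× images gave relative viability as treated counts over vehicle counts, reported as the median of duplicate plates.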

BI-2536 + Trametinib = compound: CC[C@@H]1C(=O)N(C)c2cnc(Nc3ccc(C(=O)NC4CCN(C)CC4)cc3OC)nc2N1C1CCCC1 [BI-2536] + CC(=O)Nc1cccc(-n2c(=O)n(C3CC3)c(=O)c3c(Nc4ccc(I)cc4F)n(C)c(=O)c(C)c32)c1 [Trametinib] (partner 0.02 µM)
Procedure, shortened: as §1

BI-2536 + Foretinib = compound: CC[C@@H]1C(=O)N(C)c2cnc(Nc3ccc(C(=O)NC4CCN(C)CC4)cc3OC)nc2N1C1CCCC1 [BI-2536] + COc1cc2c(Oc3ccc(NC(=O)C4(C(=O)Nc5ccc(F)cc5)CC4)cc3F)ccnc2cc1OCCCN1CCOCC1 [Foretinib] (partner 0.25 µM)
Procedure, shortened: as §1

[1] = compound: CC1CC(=O)N(C2=CN=C(N=C2N1C3CCCC3)NC4=C(C=C(C=C4)C(=O)NC5CCN(CC5)C)OC)C [NPK76-II-72-1] + Cc1nc(Nc2ncc(C(=O)Nc3c(C)cccc3Cl)s2)cc(N2CCN(CCO)CC2)n1 [Dasatinib] (partner 0.075 µM)
Procedure, shortened: as §1

Cell Line | relative viability (BI-2536 + Pictilisib; first compound 0.01 µM) | relative viability (BI-2536 + Pictilisib; first compound 0.03162 µM) | relative viability (BI-2536 + Pictilisib; first compound 0.1 µM) | relative viability (BI-2536 + Pictilisib; first compound 0.3162 µM) | relative viability (BI-2536 + Pictilisib; first compound 1 µM) | relative viability (BI-2536 + Trametinib; first compound 0.01 µM) | relative viability (BI-2536 + Trametinib; first compound 0.03162 µM) | relative viability (BI-2536 + Trametinib; first compound 0.1 µM) | relative viability (BI-2536 + Trametinib; first compound 0.3162 µM) | relative viability (BI-2536 + Trametinib; first compound 1 µM) | relative viability (BI-2536 + Foretinib; first compound 0.01 µM) | relative viability (BI-2536 + Foretinib; first compound 0.03162 µM) | relative viability (BI-2536 + Foretinib; first compound 0.1 µM) | relative viability (BI-2536 + Foretinib; first compound 0.3162 µM) | relative viability (BI-2536 + Foretinib; first compound 1 µM) | relative viability ([1]; first compound 0.01 µM) | relative viability ([1]; first compound 0.03162 µM) | relative viability ([1]; first compound 0.1 µM) | relative viability ([1]; first compound 0.3162 µM) | relative viability ([1]; first compound 1 µM)
LC-2-ad | 0.552 | 0.192 | 0.0937 | 0.0909 | 0.0871 | 0.913 | 0.803 | 0.672 | 0.224 | 0.239 | 0.909 | 0.386 | 0.289 | 0.285 | 0.322 | 0.569 | 0.862 | 0.485 | 0.438 | 0.791
SK-LU-1 | 0.499 | 0.62 | 0.42 | 0.201 | 0.157 | 0.347 | 0.514 | 0.335 | 0.218 | 0.386 | 0.839 | 0.778 | 0.291 | 0.213 | 0.197 | 0.188 | 0.181 | 0.207 | 0.202 | 0.172
ChaGo-K-1 | 0.643 | 0.535 | 0.243 | 0.275 | 0.354 | 0.9 | 0.875 | 0.733 | 0.181 | 0.202 | 0.851 | 0.972 | 0.687 | 0.164 | 0.217 | 0.577 | 0.624 | 0.505 | 0.53 | 0.596
COR-L 105 | 0.437 | 0.358 | 0.23 | 0.237 | 0.216 | 0.463 | 0.454 | 0.394 | 0.267 | 0.297 | 1.12 | 0.848 | 0.913 | 0.366 | 0.344 | 0.33 | 0.317 | 0.384 | 0.323 | 0.467
NCI-H1975 | 0.27 | 0.284 | 0.24 | 0.117 | 0.135 | 0.252 | 0.363 | 0.295 | 0.12 | 0.122 | 0.942 | 0.85 | 0.508 | 0.148 | 0.114 | 0.336 | 0.402 | 0.359 | 0.439 | 0.382
NCI-H1993 | 0.981 | 0.681 | 0.638 | 0.664 | 0.631 | 0.448 | 0.404 | 0.56 | 0.379 | 0.398 | 0.774 | 0.828 | 0.694 | 0.634 | 0.537 | 0.442 | 0.654 | 0.619 | 0.548 | 0.759
RERF-LC-KJ | 0.565 | 0.48 | 0.249 | 0.145 | 0.206 | 0.884 | 0.953 | 0.527 | 0.186 | 0.225 | 1 | 0.88 | 0.897 | 0.189 | 0.213 | 0.818 | 0.886 | 0.722 | 0.732 | 0.808
NCI-H23 | 0.424 | 0.272 | 0.169 | 0.139 | 0.14 | 0.372 | 0.464 | 0.201 | 0.112 | 0.14 | 0.954 | 0.813 | 0.229 | 0.153 | 0.162 | 0.752 | 0.771 | 0.565 | 0.859 | 0.776
HCC-366 | 0.144 | 0.179 | 0.0833 | 0.0304 | 0.0488 | 0.364 | 0.371 | 0.235 | 0.0287 | 0.0227 | 0.959 | 0.847 | 0.225 | 0.0291 | 0.0206 | 0.593 | 0.633 | 0.638 | 0.606 | 0.635
EMC-BAC-2 | 0.502 | 0.559 | 0.305 | 0.162 | 0.163 | 0.854 | 0.851 | 0.819 | 0.303 | 0.277 | 1.03 | 1.18 | 0.947 | 0.202 | 0.194 | 0.345 | 0.295 | 0.346 | 0.333 | 0.367
NCI-H2405 | 0.369 | 0.391 | 0.265 | 0.0965 | 0.201 | 0.607 | 0.549 | 0.441 | 0.277 | 0.357 | 1.05 | 0.731 | 0.386 | 0.296 | 0.354 | 0.236 | 0.209 | 0.194 | 0.213 | 0.212
NCI-H358 | 0.338 | 0.235 | 0.18 | 0.14 | 0.15 | 0.146 | 0.126 | 0.11 | 0.0815 | 0.0734 | 0.623 | 0.598 | 0.08 | 0.101 | 0.0984 | 0.162 | 0.14 | 0.156 | – | 0.149
NCI-H1944 | 0.339 | 0.336 | 0.295 | 0.157 | 0.17 | 0.392 | 0.427 | 0.439 | 0.144 | 0.186 | 0.822 | 1.09 | 0.907 | 0.134 | 0.178 | 0.205 | 0.219 | 0.224 | 0.221 | 0.226
EPLC-272H | 0.343 | 0.256 | – | 0.233 | 0.151 | 0.286 | 0.261 | 0.191 | 0.12 | 0.166 | 0.715 | 0.0998 | 0.0735 | 0.0644 | 0.0639 | 0.318 | – | 0.332 | 0.251 | 0.357
NCI-H1915 | 0.866 | 0.899 | 0.264 | 0.074 | 0.0908 | 0.29 | 0.332 | 0.317 | 0.0844 | 0.0806 | 1.13 | 0.975 | 0.618 | 0.16 | 0.143 | 0.324 | 0.352 | 0.324 | 0.351 | 0.302
NCI-H596 | 0.376 | 0.293 | 0.198 | 0.215 | 0.205 | 0.758 | 0.798 | 0.721 | 0.414 | 0.256 | 0.642 | 0.955 | 0.803 | 0.292 | 0.205 | 0.544 | 0.668 | 0.551 | 0.591 | 0.557
NCI-H322M | 0.303 | 0.478 | 0.559 | 0.519 | 0.271 | 0.535 | 0.473 | 0.564 | 0.435 | 0.361 | 0.98 | 0.842 | 0.834 | 0.389 | 0.319 | 0.268 | 0.241 | 0.249 | 0.234 | 0.256
NCI-H2228 | 0.39 | 0.374 | 0.218 | 0.13 | 0.165 | 0.312 | 0.51 | 0.184 | 0.107 | 0.089 | 1.05 | 0.583 | 0.217 | 0.15 | 0.156 | 0.367 | 0.547 | 0.495 | 0.566 | 0.619
NCI-H647 | 0.396 | 0.376 | 0.129 | 0.0762 | 0.0954 | 0.482 | 0.458 | 0.213 | 0.087 | 0.0808 | 1.35 | 1.16 | 0.649 | 0.101 | 0.128 | 0.215 | 0.212 | 0.131 | 0.146 | 0.169
SK-MES-1 | 0.357 | 0.374 | 0.304 | 0.157 | 0.127 | 0.523 | 0.555 | 0.407 | 0.196 | 0.161 | 0.926 | 0.778 | 0.927 | 0.204 | 0.168 | 0.468 | 0.352 | 0.399 | 0.341 | 0.403
NCI-H2170 | 0.342 | 0.295 | 0.192 | 0.184 | 0.168 | 0.945 | 0.916 | 0.775 | 0.137 | 0.176 | 1.03 | 1.02 | 0.799 | 0.219 | 0.208 | 0.599 | 0.487 | 0.598 | 0.315 | 0.762
NCI-H2085 | 0.395 | 0.504 | 0.371 | 0.183 | 0.224 | 0.523 | 0.52 | 0.439 | 0.144 | 0.177 | 1.02 | 0.686 | 0.707 | 0.199 | 0.276 | 0.258 | 0.266 | 0.24 | 0.227 | 0.22
SW 1573 | 0.477 | 0.479 | 0.263 | 0.142 | 0.118 | 0.515 | 0.51 | 0.117 | 0.103 | 0.0762 | 0.878 | 0.91 | 0.936 | 0.196 | 0.158 | 0.46 | 0.592 | 0.556 | 0.589 | 0.509
NCI-H727 | 0.391 | 0.338 | 0.433 | 0.265 | 0.19 | 0.366 | 0.364 | 0.379 | 0.362 | 0.332 | 0.818 | 0.888 | 0.711 | 0.515 | 0.371 | 0.327 | 0.298 | 0.316 | 0.397 | 0.409
NCI-H441 | 0.464 | 0.211 | 0.138 | 0.17 | 0.117 | 0.517 | 0.29 | 0.158 | 0.154 | 0.162 | 0.918 | 0.673 | 0.261 | 0.194 | 0.222 | 0.565 | 0.709 | 0.452 | 0.541 | 0.727
LOU-NH91 | 0.545 | 0.516 | 0.474 | 0.284 | 0.276 | 0.798 | 0.736 | 0.682 | 0.332 | 0.33 | 0.987 | 0.861 | 0.857 | 0.363 | 0.273 | 0.52 | 0.498 | 0.528 | 0.401 | 0.612
